Results: ChEMBL document CHEMBL1151488, “Synthesis and biological activity of J-104,118, a novel, potent inhibitor of squalene synthase” (Bioorg Med Chem Lett, 1995)

Legend:
[1] = Inhibition of cholesterol synthesis by compound after oral administration at of 10-100 mg/kg/day in marmoset; type: functional
Mus musculus [2] = experiment: Tested for inhibition of cholesterol synthesis by compound after oral administration at 10 mg/kg in mice; type: functional
Squalene synthase = target: T1, Squalene synthase (Homo sapiens, UniProt P37268); experiment: Inhibitory activity against HepG2 Squalene Synthase (SQS)
T1 sequence (P37268 whole entry): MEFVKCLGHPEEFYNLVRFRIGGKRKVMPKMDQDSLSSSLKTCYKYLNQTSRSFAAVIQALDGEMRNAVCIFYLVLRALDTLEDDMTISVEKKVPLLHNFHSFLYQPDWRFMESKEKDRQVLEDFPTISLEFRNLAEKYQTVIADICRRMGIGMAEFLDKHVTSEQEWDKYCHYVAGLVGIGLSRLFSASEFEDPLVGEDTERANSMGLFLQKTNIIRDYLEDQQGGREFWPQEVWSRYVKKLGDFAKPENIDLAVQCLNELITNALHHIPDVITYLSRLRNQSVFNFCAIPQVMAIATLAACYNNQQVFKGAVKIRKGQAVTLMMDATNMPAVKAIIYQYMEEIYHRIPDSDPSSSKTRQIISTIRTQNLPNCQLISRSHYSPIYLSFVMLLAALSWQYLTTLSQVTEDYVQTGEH

Mus musculus [3] = experiment: Inhibition of cholesterol synthesis from [14C]acetate expressed as percent reduction in radioactivity in mice after oral administration of 3 mg/kg; type: functional

IC50 (Squalene synthase) [nM]	SMILES	other results
	C=C(CCC12OC(C(=O)O)C(O)(C(=O)O)C(C(=O)O)(O1)[C@H](OC(=O)/C=C/[C@@H](C)C[C@@H](C)CC)[C@H]2O)[C@@H](OC(C)=O)[C@H](C)Cc1ccccc1 (some centres not stated) [ZARAGOZIC ACID A]	Reduction [1]: 75%; inhibition in vivo at 10 mg/kg (Mus musculus [2]): 38%
3.2	C[C@H](NC(=O)C[C@@H](CC(=O)O)C(=O)O)[C@@H](Cc1ccc(Cl)cc1)c1ccc(-c2ccccc2)cc1	
1.2	C[C@H](NC(=O)C[C@@H](CC(=O)O)C(=O)O)[C@@H](Cc1ccc(Cl)c(Cl)c1)c1ccc(-c2ccccc2)cc1	
16	C[C@@H](NC(=O)C[C@H](CC(=O)O)C(=O)O)[C@H](Cc1ccc(Cl)c(Cl)c1)c1ccc(-c2ccccc2)c(F)c1	
19	C[C@@H](NC(=O)C[C@H](CC(=O)O)C(=O)O)[C@@H](Cc1ccc(Cl)c(Cl)c1)c1ccc(-c2ccccc2)c(F)c1	
0.52	C[C@H](NC(=O)C[C@@H](CC(=O)O)C(=O)O)[C@@H](Cc1ccc(Cl)c(Cl)c1)c1ccc(-c2ccccc2)c(F)c1	Reduction (Mus musculus [3]): 84%
0.73	C[C@H](NC(=O)CC(CC(=O)O)C(=O)O)[C@@H](Cc1ccc(Cl)c(Cl)c1)c1ccc(-c2ccccc2)c(F)c1 (single isomer, unassigned)	
> 300	C[C@H](NC(=O)CC(CC(=O)O)C(=O)O)[C@@H](Cc1ccc(Cl)c(Cl)c1)c1ccc(-c2ccccc2)c(F)c1 (some centres not stated)	
660	CC(NC(=O)CC(CC(=O)O)C(=O)O)C(Cc1ccc(Cl)cc1)c1ccc(Cl)cc1 (configuration not stated)	
> 300	C[C@@H](NC(=O)CC(CC(=O)O)C(=O)O)[C@H](Cc1ccc(Cl)c(Cl)c1)c1ccc(-c2ccccc2)c(F)c1 (some centres not stated)	
